Data on 7 compounds can be found in patent EP0802900B1, “ANTIARRHYTHMIC (S)-ENANTIOMERS OF METHANESULFONAMIDES” (priority 1995, dated 1996).

Read-outs that look alike come from different tables or passages of the source.

Data set [1] concerns methoxamine treated rabbits. The experiment in a line: Early after depolarizations (EAD) and polymorphic ventricular tachycardia (PVT) in methoxamine treated anesthetized rabbits. In kind it is in vivo, New Zealand White rabbits. Particulars: for EAD: Magnitude of the maximum early after depolarization amplitude as a percent of the monophasic action potential amplitude (APA) / MAPD90: Maximum increase in the ventricular monophasic action potential duration from the methoxamine infusion baseline, measured at 90% repolarization / PVT: Ratio of the number of animals that developed polymorphic ventricular tachycardia to the total number of animals evaluated / QTc: Maximum increase in QTc interval from the methoxamine infusion baseline: continuous intravenous infusion over 1 hour, methoxamine 10 µg/kg/minute. The method, then: The Formula I compounds were evaluated for their ability to produce early after depolarizations (EAD) and polymorphic ventricular tachycardia (PVT) in methoxamine treated rabbits. The method used was as follows:
Male New Zealand White rabbits (2.5 - 3.5 kg,) were pretreated with subcutaneous morphine sulfate (5 mg/kg) 30 minutes prior to anesthesia. Anesthesia was induced by infusion of α-chloralose (90 - 120 mg/kg) through a marginal ear vein over a period of 20 to 30 minutes. A tracheotomy was performed and the rabbit was respirated with room air (5 - 6 cc/kg) using a small animal ventilator (Columbus Instruments, Columbus, OH). Respiration rate, and tidal volume were adjusted, and supplemental oxygen administered to maintain arterial blood gases and pH within normal physiologic ranges. Catheters were placed in a jugular vein and carotid artery for administration of drugs, and measurement of arterial blood pressure, respectively. A 4 French monophasic action potential catheter was introduced through a jugular vein for monitoring of right ventricular monophasic action potential duration which was measured at 90% repolarization (MAPD90), A lead II ECG and arterial blood pressure were monitored throughout the experiments.
All records were obtained on a multichannel recorder (Gould ES 2000, Cleveland, OH) and experiments were continuously recorded on FM magnetic tape (TEAC 501, Montebello, CA) for subsequent playback and analysis.
Following experimental preparation, the rabbits were allowed to equilibrate for 10 minutes before baseline measurements of heart rate, aortic blood pressure, and QTc interval were made. During the equilibration period, monophasic action potentials were monitored and the catheter adjusted to produce action potentials with a stable amplitude. Following baseline measurements, the α1 agonist methoxamine was infused at a rate of 10 µg/kg/minute at an infusion volume of 12.0 ml/hr. After 15 minutes of methoxamine administration, intravenous infusion of saline (vehicle control) or a class III agent was begun. All agents were administered as a continuous infusion over a 1 hour period. Measurement of heart rate, aortic blood pressure. QTc interval (as defined below), and MAPD90 were repeated at several time points during drug administration to provide dose-response relationships. QTc and MAPD90 were also monitored to insure that maximal class III effects on these parameters had been achieved.
Total accumulated dose at the first incidence of PVT was also measured. Repolarization arrhythmias were characterized as early after depolarizations and extrasystoles during repolarization which produced extrasystoles in lead II ECG. PVT was considered to have occurred if 3 or more closely coupled repetitive extrasystoles with a twisting or torsioning QRS morphology were observed.
QT intervals were corrected for heart rate changes using the formula QTc = QT/square root R-R interval. EADs were compared between treatment groups at stable monophasic action potential amplitudes (APA) and are reported as a percent of the APA.
Examples of Formula I compounds evaluated in this manner are collected in Table II. A measure of Class III antiarrhythmic activity is indicated by an increase in QTc and MAPD90. The proarrhythmic potential is indicated by the incidence and magnitude of the EADs and by the ratio of the incidence of PVT to the total number of animals tested. The corresponding data for ibutilide, a compound of U.S. Patent 5,155,268, and the racemc forms Examples (R.S) (compounds of PCT WO 91/01299) are shown for comparison.

For data set [2], the system named is rabbit papillary muscle. As to the kind of experiment: Electrophysiological activity in isolated, perfused rabbit cardiac tissue (effective refractory period). Details: species or system New Zealand White rabbits. The settings on record: drug concentration of 10^-5M; for activation at 10 µM: Oryctolagus cuniculus. The procedure:
According to Scheme 1, in Step I, (4-methanesulfonylamino)-γ-oxobenzenebutanoic acid (II, prepared as described in EP 164 865) is convened to the N-ethylamide (III). Standard amide forming reagents such as dicyclohexylcarbodiimide or preferably isobutyl chloroformate can be used for this purpose. In Step II the ketone of III is reduced with the chiral reagent (-)-B-chlorodiisopinocamphenylborane in tetrahydrofuran. The reaction is carried out below 0°C and preferably at -25 to -35°C. A nonaqueous work up is used to facilitate isolation of the water soluble product. The (S)-(-) enantiomer of the chiral alcohol is obtained. Purification of this alcohol by recrystallization from acetonitrile, methanol, ethanol, tert-butyl methyl ether or mixtures thereof gives IV with high enantiomeric purity. In Step III the amide of IV is reduced with sodium bis-(2-methoxyethoxy)aluminum hydride in tetrahydrofuran at 24°C. A neutral nonaqueous work up is employed to facilitate isolation of the water soluble product (V). Alkylation of V with appropriately substituted alkyl bromides (R3CH2Br) to give the compounds (I) of this invention is accomplished in Step IV. The preferred conditions for this reaction employ acetonitrile as solvent and the weakly basic sodium bicarbonate to neutralize the hydrogen bromide generated by the reaction. The reaction is usually carried out at the reflux temperature (81°C). [drawing 2] The Formula I compounds were evaluated for electrophysiological activity in an isolated, perfused rabbit cardiac tissue system. The method used was as follows:
New Zealand White rabbits of either sex (1.5-2.0 kg) were anesthetized and their hearts removed. The heart was immersed in ice cold perfusate while the right atria (RA), papillary muscles (PAP), and right ventricular muscle strips (RV) were isolated. The perfusate was continuously oxygenated with 95% oxygen and 5% carbon dioxide and contained the following in mM concentrations: NaCI 118.0; KCl 5.4; NaHCO3 25.0; MgCl2 1.2: KH2PO4 1.0; CaCl2 2.4; glucose […] and pyruvic acid 2.0. During hypoxic conditions the perfusate was exposed to a mixture of 83% nitrogen, 10% carbon dioxide and 7% oxygen. The pH during normoxia was approximately 7.4 and dropped to approximately 7.2 during hypoxic conditions.
The tissues were individually mounted on a plexiglass holder containing platinum stimulating electrodes and suspended in a 100 ml bath maintained at 30°C by a circulating heat pump. All tissues were attached by silk suture to a force-displacement transducer and a tissue-dependent preload of 500-1000 mg was applied. RA were allowed to contract spontaneously. RV and PAP were stimulated at 2X threshold with 4 msec rectangular pulses at a frequency of 1 and 3 Hz. (Effective refractory period measurements percent increment over control are ERPI and ERP3, conduction time measurements are CT1 and CT3). Between measurements those tissues were stimulated at a resting pace of 2 Hz. Each tissue served as its own baseline control and was allowed an equilibration period of two hours prior to experiments. During this period the perfusate was changed every 10-15 minutes.
Working solutions of the drugs were prepared by dissolving the drugs in distilled water and one drop of NaOH/ml to aid in dissolution (pH 9.4).
Measurements were made on each set of tissues after exposure to 10^-7, 10^-6, or 10^-5M drug for 15 minutes; and 10^-5M drug under hypoxic conditions for 15 minutes.
Automaticity (RATE), force of contraction (FOC) and threshold were measured directly on a polygraph. The ERP of cardiac tissues by definition is the longest coupling interval between the basic drive (S1) and the premature impulse (S2) that fails to propagate through the tissue. The S2 stimulus was introduced after every eighth Sl which allowed time for stabilization of refractoriness. Refractory period measurements were made via a digital timing circuit. […]

Where [3] appears, read: value in parentheses in EAD column.
[4] abbreviates: pacing rate of 1 Hz, read-out: ERP1: percent increase in the effective refractory period over control values.
The mark [5] stands for this setting: pacing rate of 3 Hz, read-out: ERP3: percent increase in the effective refractory period over control values.

Regarding `CCN(CCCCCCCF)CCCC(O)c1ccc(NS(C)(=O)=O)cc1` (racemic) [(R,S) 1], in data set [1], the “EAD: Magnitude of the maximum early after depolarization amplitude as a percent of the monophasic action potential amplitude (APA)” value came to 52%; the “MAPD90: Maximum increase in the ventricular monophasic action potential duration from the methoxamine infusion baseline, measured at 90% repolarization” value (shortened to “MAPD90: Maximum increase … at 90% repolarization”) is listed as “+128 m sec”; the “PVT: Ratio of the number of animals that developed polymorphic ventricular tachycardia to the total number of animals evaluated” value (“PVT: Ratio” below) is listed as 1/6; the “QTc: Maximum increase in QTc interval from the methoxamine infusion baseline” value (from here on “QTc: Maximum increase in QTc interval”) is given as “+143 m sec”. Also, the “Total accumulated dose of test compound when the maximum EAD was measured” value (“Total accumulated dose of test compound” below) in data set [1] (setting [3]) was 0.5 mg/kg. The “Total accumulated dose at the first incidence of PVT” value (“Total accumulated dose … of PVT” below) in data set [1] (value in parentheses in PVT) worked out at 2 mg/kg.

On to `CCN(CCCCCC(C)F)CCCC(O)c1ccc(NS(C)(=O)=O)cc1` (racemic) [(R,S) 2], for which, in data set [1], the “EAD: Magnitude of the maximum early after depolarization amplitude as a percent of the monophasic action potential amplitude (APA)” value came to 63%; the “MAPD90: Maximum increase … at 90% repolarization” value is given as “+141 m sec”; the “PVT: Ratio” value is 3/6; the “QTc: Maximum increase in QTc interval” value is reported as “+166 m sec”. Further, the “Total accumulated dose of test compound” value in data set [1] (setting [3]) amounted to 1 mg/kg. Also, the “Total accumulated dose … of PVT” value in data set [1] (value in parentheses in PVT) is given as 0.2 mg/kg.

`CCN(CCCCCC(C)(C)F)CCCC(O)c1ccc(NS(C)(=O)=O)cc1` (racemic) [(R,S) 3]: in data set [1], the “EAD: Magnitude of the maximum early after depolarization amplitude as a percent of the monophasic action potential amplitude (APA)” value was 35%; the “MAPD90: Maximum increase … at 90% repolarization” value is “+96 m sec”; the “PVT: Ratio” value was 1/6; the “QTc: Maximum increase in QTc interval” value is reported as “+136 m sec”. Moreover, the “Total accumulated dose of test compound” value in data set [1] (setting [3]) was 0.25 mg/kg. In addition, the “Total accumulated dose … of PVT” value in data set [1] (value in parentheses in PVT) is listed as 0.2 mg/kg.

Regarding `CCN(CCCCCC(C)(C)F)CCC[C@H](O)c1ccc(NS(C)(=O)=O)cc1` [Example 3, (S)-(-)-N-[4-[4-[Ethyl(6-fluoro-6-methylheptyl)amino]-1-hydroxybutyl]phenyl]-methanesulfonamide], the activation at 10 µM in data set [2] (setting [4]) is 21.4%. Besides, the activation at 10 µM in data set [2] (setting [5]) came to 25.4%. Moreover, in data set [1], the “EAD: Magnitude of the maximum early after depolarization amplitude as a percent of the monophasic action potential amplitude (APA)” value is 0%; the “MAPD90: Maximum increase … at 90% repolarization” value is on record as “+75 m sec”; the “PVT: Ratio” value is recorded as 0/16; the “QTc: Maximum increase in QTc interval” value is given as “+82 m sec”.

With `CCCCCCCN(CC)CCCC(O)c1ccc(NS(C)(=O)=O)cc1` (stereo not drawn) [Ibutilide, ibutilide], in data set [2] (setting [4]), the activation at 10 µM was 18%. The activation at 10 µM in data set [2] (setting [5]) amounted to 15.8%. In data set [1], the “MAPD90: Maximum increase … at 90% repolarization” value is recorded as “+114 m sec” and the “QTc: Maximum increase in QTc interval” value is on record as “+95 m sec”. In addition, in data set [1] (rabbit, in vivo), the “Total accumulated dose … of PVT” value came out at 1 mg/kg and the “Total accumulated dose of test compound” value is 4 mg/kg.

Take “(S)-(-)-N-[4-[4-[Ethyl(6-fluoroheptyl)amino]-1-hydroxybutyl]phenyl]methanesulfonamide, (E)-2-Butenedioate (2:1 salt) [Example 2]”: in data set [2] (pacing rate of 1 Hz), the “ERP1: percent increase in the effective refractory period over control values” is reported as 30.7%. The “ERP3: percent increase in the effective refractory period over control values” in data set [2] (pacing rate of 3 Hz) was 8.7%. In addition, in data set [1], the “EAD: Magnitude of the maximum early after depolarization amplitude as a percent of the monophasic action potential amplitude (APA)” value was found to be 0%; the “MAPD90: Maximum increase … at 90% repolarization” value is “+88 m sec”; the “PVT: Ratio” value is 0/16; the “QTc: Maximum increase in QTc interval” value is “+119 m sec”.

Turning to “(S)-(-)-N-[4-[4-[Ethyl(7-fluoroheptyl)amino]-1-hydroxybutyl]phenyl] methanesulfonamide, (E)-2-Butenedioate (2:1 salt) [Example 1]”, the “ERP1: percent increase in the effective refractory period over control values” in data set [2] (pacing rate of 1 Hz) was determined as 43.5%. For the same compound, the “ERP3: percent increase in the effective refractory period over control values” in data set [2] (pacing rate of 3 Hz) came out at 26.1%. Further, in data set [1], the “EAD: Magnitude of the maximum early after depolarization amplitude as a percent of the monophasic action potential amplitude (APA)” value is 0%; the “MAPD90: Maximum increase … at 90% repolarization” value is reported as “+70 m sec”; the “PVT: Ratio” value is 0/16; the “QTc: Maximum increase in QTc interval” value is on record as “+112 m sec”.
